# According to patent US20160100573A1, “QUATERNARY ORGANOSILICON SURFACTANTS, METHODS OF MAKING SAME AND APPLICATIONS CONTAINING THE SAME” (Momentive Performance Materials Inc., priority 2014, published 2016):
# Key:
# [1] = Dispersibility / cloud point of surfactant in glyphosate-isopropyl amine 480 g/L formulation; assay type: physicochemical; settings: for Cloud Point (50 g/L): surfactant at 5% in glyphosate 480 g/L formulation
# Protocol: Aqueous glyphosate-isopropyl amine (480 g/L) formulations containing 5% of either Comparative-B or the composition of the present invention were prepared and evaluated for dispersion properties. The formulations were visually observed for clarity at 20-22° C., and if clear to hazy, the cloud point was also measured.
# Cloud point was determined by placing 15 mL of formulation in a 20 dram vial containing a digital thermometer, and slowly heating the mixture on a magnetic stirrer/hot plate. The temperature at which the solution became opaque was recorded as the cloud point.
# [2] = Spreading of surfactant solutions on polystyrene surface (spread diameter after 30 seconds); assay type: physicochemical; parameters: unit not given here
# Protocol: Spreading was determined using between 0.1% and 0.4% (actives) surfactant. Solutions were prepared in Milli-Pore water (deionized) where a 10 μl, drop was placed on a polystyrene surface (Petri-dish) and the spread diameter determined after 30 seconds.
# [3] = Impact of cosurfactant on spreading of QC-1A on polystyrene surface; assay type: physicochemical; settings: 0.2 wt % QC-1A, 0 wt % cosurfactant
# Protocol: Spreading was determined using 0.2% (actives) total surfactant solutions, where a […] was placed on a polystyrene surface and the spread diameter determined after 30 seconds. The ratio of QC-1A to Cosurfactant was varied to determine the potential for synergistic or antagonistic effects from interaction between the two surfactants. The spread results (Actual) for each set were compared to a predicted value (weighted average) based on a linear relationship between QC-1A and the Cosurfactant.
# [4] = test system: Barnyardgrass (Echinochloa crus-galli); assay: Effect of adjuvant on uptake of 14C-glyphosate isopropylamine salt into Barnyardgrass; assay type: in vivo
# Protocol: In one other embodiment herein the quaternary organosilicon surfactant composition of the present invention is such that the foliar uptake of various agricultural chemicals is faster for applications containing the quaternary organosilicon having the general formula (I) than that for equivalent applications containing a tallow amine ethoxylate.
# Uptake of ^14C-glyphosate (herbicide) into Barnyardgrass (Echinochloa crus-galli) was determined at 2 and 24 hours after treatment (HAT) according to the method described by Gaskin et al. (Gaskin, R. E.; Stevens, P. J. G. 1992. Pestic. Sci. 38: 185-192.), to establish the impact of surfactant on the speed of uptake. Uptake was determined on adaxial surface of youngest fully expanded leaf; plant at 4 leaf stage, ca 10 cm tall.
# [5] = Aqueous surface tension by Wilhelmy Plate method (Kruss Tensiometer); assay type: physicochemical; settings: ~22° C.; for CMC: 0.005M NaCl
# Protocol: The aqueous surface tension of the various surfactants was determined by the Wilhelmy Plate method using a sand-blasted platinum blade as the sensor. Measurements were made using a Kruss surface Tensiometer. Surfactant solutions were prepared between 0.00001% and 1 wt % in 0.005M NaCl at ambient temperatures (˜22° C.).
# [6] = 0.1 wt % surfactant (actives) in deionized water
# [7] = 0.2 wt % surfactant (actives) in deionized water
# [8] = 0.4 wt % surfactant (actives) in deionized water
# [9] = 1.00E+00 weight % surfactant in 0.005M NaCl
# [10] = 1.00E-01 weight % surfactant in 0.005M NaCl
# [11] = 1.00E-02 weight % surfactant in 0.005M NaCl
# [12] = 1.00E-03 weight % surfactant in 0.005M NaCl
# [13] = 1.00E-04 weight % surfactant in 0.005M NaCl
# [14] = 1.00E-05 weight % surfactant in 0.005M NaCl
# [15] = 3.00E-03 weight % surfactant in 0.005M NaCl
Compound,Cloud Point (50 g/L) [1],"Spread diameter [2, 6]","Spread diameter [2, 7]","Spread diameter [2, 8]",CMC [5] [wt %],"Surface Tension [5, 9] [mN/m]","Surface Tension [5, 10] [mN/m]","Surface Tension [5, 11] [mN/m]","Surface Tension [5, 12] [mN/m]","Surface Tension [5, 13] [mN/m]","Surface Tension [5, 14] [mN/m]","Surface Tension [5, 15] [mN/m]",also measured
C[N+](C)(CC(O)CO)CC(O)COCCC[Si](C)(C)CC[Si](C)(C)C (stereo not drawn) [QC-2],>95 °C,10,23,40,,,,,,,,,
CCCC[N+](C)(C)CC(O)COCCC[Si](C)(C)CC[Si](C)(C)C (stereo not drawn) [QC-3],Hazy at 20 °C,14,23,36,,,,,,,,,
C[N+](C)(CCCO)CC(O)COCCC[Si](C)(C)CC[Si](C)(C)C (stereo not drawn) [QC-1A],,,,,,,,,,,,,Spread Diameter (Actual) [3]: 48 mm; Spread Diameter (Predicted) ([3]; weighted average): 48 mm
C[N+](C)(CCCO)CC(O)COCCC[Si](C)(C)CC[Si](C)(C)C (stereo not drawn) [QC-1],>95 °C,13,33,47,,,,,,,,,"Glyphosate uptake relative to TAE-2 ([4]; 2 HAT, even at a 4x lower use rate): significantly enhances glyphosate uptake; Uptake % of 14C-glyphosate ([4]; adjuvant 0.05 % w/v, 2 HAT): 40.1 d %; Uptake % of 14C-glyphosate ([4]; adjuvant 0.05 % w/v, 24 HAT): 57.6 be %; Uptake % of 14C-glyphosate ([4]; adjuvant 0.1 % w/v, 2 HAT): 34.8 e %; Uptake % of 14C-glyphosate ([4]; adjuvant 0.1 % w/v, 24 HAT): 56.2 c %; Uptake % of 14C-glyphosate ([4]; adjuvant 0.2 % w/v, 2 HAT): 36.2 de %; Uptake % of 14C-glyphosate ([4]; adjuvant 0.2 % w/v, 24 HAT): 61.6 b %"
C[N+](C)(CCCO)CC(O)COCCC[Si](C)(O[Si](C)(C)C)O[Si](C)(C)C (stereo not drawn) [TSQ-1],,15,30,,0.009,19.9,20.2,22.3,38.3,55.6,66.7,28.7,
"COCCOCCOCCOCCOCCOCCOCCOCCOCCC[Si](C)(C)CC[Si](C)(C)C [Comparative-A, (CH3)3—Si—CH2CH2Si(CH3)2CH2CH2CH2O(CH2CH2O)8CH3]",,43,54,,0.005,23.7,24.4,25.4,34.8,48.7,62.4,30.1,
(CH3)3—Si—O—Si(CH3)(Z)—OS i(CH3)3 Where Z=—CH2CH2CH2O(CH2CH2O)8CH3 [Comparative-B],Cloudy at 20° C.^a.,,,,0.01,20.6,20.7,21.5,34.2,45.1,52.9,27.0,"Dispersibility in the glyphosate formulation (visual) ([1]; 5% surfactant in glyphosate-isopropyl amine 480 g/L, 20-22° C.): insoluble in the glyphosate formulation"
